Laboratory results taken from US10993917B2, “Nanocomplex” (AGENCY FOR SCIENCE, TECHNOLOGY AND RESEARCH, priority 2016, dated 2021).

What was measured:
[1] = tested on: SKOV-3 human ovarian cancer xenograft; assay: Antitumor efficacy study in a subcutaneous xenograft model; assay type: in vivo, NCR mice; details: 1 mg Pt kg^−1 i.v. on days 0, 7 and 14
Protocol: Female NCR mice bearing a subcutaneous SKOV-3 human ovarian cancer xenograft (120-150 mm^3) were randomly allocated to different treatments (10 mice per group). […] An isotonic dextrose solution (5% w/v) was used as a control. The tumor volume (mm^3) was calculated from the following formula: volume=(length×width^2)/2. In addition, a change in the body weight in the course of treatment was monitored as a measure of systemic toxicity.

[2] = Biodistribution study in SKOV-3 tumor-bearing mice; assay type: in vivo, athymic NCR nude mice; details: intravenous, 2 mg Pt kg^−1, 4 hours post-injection
Protocol: All animal experiments were performed according to the protocols approved by the IACUC at the Biological Resource Centre, Singapore. Female athymic NCR nude mice (CrTac:Ncr-Foxn1^nu, 5-6 weeks old) were inoculated subcutaneously with 1×10^7 SKOV-3 cells suspended in 100 μL of PBS and 100 μL of Matrigel (BD Bioscience, of the United States of America) in the right flank. […] At predetermined time points, blood and organs were collected (4 mice per time point). The collected plasma and organs were decomposed in 65% (v/v) nitric acid at 60° C. for 2 hours, and the platinum concentration was measured by ICP-MS.

[3] = Blood chemistry analysis 38 days after first treatment; assay type: in vivo, athymic NCR mice; details: 38-days endpoint, 1 mg Pt kg^−1 i.v. days 0, 7, 14
Excerpt: The athymic NCR mice that received different treatments were sacrificed to collect blood, tumor, and organs 38 days after the first treatment. For blood chemistry analysis, blood samples were collected in heparinized tubes and then examined using the Vetscan VS2 blood chemistry analyzer (Abaxis Inc., of California of the United States of America). The levels of alkaline phosphatase (ALP), alanine aminotransferase (ALT) and other serum markers were examined. The excised tumors and organs were fixed with neutral buffered formalin, embedded in paraffin blocks, and then sectioned for hematoxylin and eosin (H&E) staining.

[4] = Drug release study by dialysis in PBS pH 7.4 (physiological stability); assay type: physicochemical; details: 10 mM PBS pH 7.4, 37° C.
Protocol: The dialysis tube was immersed in total 30 mL of 10 mM PBS (pH 7.4). The dialysis tube was then incubated at 37° C. on an orbital shaker at 50 rpm. […] The dialysis tube was then immersed in total 30 mL of 100 mM phosphate buffer (pH 6) at 37° C. At predetermined time points, the amount of cisplatin released in the medium was determined by ICP-MS as described above. […] This rapid drug leakage was caused by the dissociation of HA/cisplatin complexes via the replacement of the carboxylate ligand of Pt(II) with the chloride ion in PBS.

Question: Which tumor growth [1] does the source give for `N.N.[Cl][Pt][Cl]` [free cisplatin, cisplatin] here?
Answer: slightly delayed the tumor growth

Question: And the mean tumor volume ([1]; day 38)?
Answer: 299.7±117.7 mm^3

Question: And the “cisplatin dose delivered into the tumor mass” value [2]?
Answer: 1.53±0.48 % ID/g

Question: What about the “platinum accumulation in the liver” value [2] of the same compound?
Answer: 1.31±0.25 % ID/g

Question: And the “ALP level in blood” value [3]?
Answer: elevated

Question: What about the “ALT level in blood” value [3] of the same compound?
Answer: elevated

Question: What about the “time to complete release from the dialysis tube” value [4] of the same compound?
Answer: ≤ 6 h
